Data: US6673788B2, “Electrophilic ketones for the treatment of herpesvirus infections” (G. D. Searle & Co., priority 1996, dated 2004)
Like-named read-outs stand apart in the source and are kept apart here.

Legend:
[1] = target: HCMV protease (Assemblin) (Human cytomegalovirus, UniProt P16753); assay: Enzymatic assay for HCMV protease (assemblin) inhibitors; assay type: biochemical; details: pNA substrate, 30 min preincubation
Protocol: Assemblin protease activity was determined using a chromogenic para-nitroanilide (pNA) substrate based on the hCMV maturation cleavage site, succinyl-AGVVNA-para-nitroanilide. […] Potential protease inhibitors were dissolved in DMSO and 10 μL were added to the wells of a 96-well plate (Dynatech, Immulon 1). Enzyme was diluted to 4.8 μg/mL in assay buffer (10 mM sodium phosphate, pH 7.4, 150 mM sodium acetate, 0.1% CHAPS, 20% glycerol) and 100 μL were added to each well. Following a 30 minute incubation at room temperature, 50 μL substrate (1 part 20 mM succinyl-AGVVNA-paranitroanilide (SEQID:1) in DMSO plus 9 parts assay buffer) were added, and periodic readings taken in a microplate reader at 405 nm relative to 650 nm. Activities were expressed as milliabsorbance unit (mAU) change per minute. Inhibitor potency was determined by comparison with incubations lacking inhibitor, which under these conditions gave an increase of 0.5-1 mAU/min. No increase was seen when enzyme was omitted. Results [IC50 (μM)] are included in Table 1.
The construction also encoded six additional histidine residues at the amino terminus of the protease. These additional histidine residues provided an affinity ligand by which it was purified using nickel-nitriloacetic acid-agarose (Qiagen).
The purified protease was stored as a 1-3 mg/ml stock solution in 20 mM HEPES buffer, pH 7.4; containing 20% (v/v) glycerol. This stock was diluted with assay buffer to 4.8 μg/ml. A 100 μL aliquot of this solution was used in the enzyme reaction.
A specific substrate was synthesized based on the cleavage specificity of HCMV protease at the “maturation site” of the assembly protein (F. Liu and B. Roizman, J. Virol., 65, 5149 (1991), and A. Welch, et al, J. Virol., 65, 4091 (1991)). The assembly protein maturation site has the sequence . . . AGVVNA*SCRLATA . . .; the substrate used was succinyl-AGVVNA-PNA (SEQID:1) which was prepared by standard peptide synthetic methods such as that described in Bodansky and Bodansky, “The Practice of Peptide Synthesis” (1984), and was stored as a stock solution at 20 mM in dimethyl sulfoxide. This was diluted 10-fold with assay buffer to give a concentration of 2 mM just before use. An aliquot of 50 μL was used in the reaction
An assay Buffer (10 mM sodium phosphate buffer, pH 7.4; 150 mM sodium acetate; 0.1% CHAPS; and 20% (v/v) glycerol) was used to dilute stock solutions of enzyme and substrate.

[2] = target: T1, Bovine pancreas α-chymotrypsin (Bos taurus, UniProt P00766, DEL14-15/DEL147-148); assay: Chymotrypsin assay; assay type: biochemical
T1 construct: purchased Sigma type II; host or cells: bovine pancreas
Protocol: The chymotrypsin assay was modified from the method of Delmar et al [Anal. Biochem., 99, 316-320 (1979)]. Bovine pancreas α-chymotrypsin (type II, Sigma) was dissolved in 0.001 N HCl at 1 mg/ml and further diluted 1/600 in assay buffer (0.1 M Tris, pH 7.8, containing 0.1 M CaCl2) before use. 20 μl of test compound in DMSO (or DMSO alone), 100 μl of assay buffer and 30 μl of enzyme were added to 96 well plates, mixed and pre-incubated for 30 minutes at ambient temperature. Reaction was initiated by addition of 50 μl of 0.2 mM N-succinyl-Ala-Ala-Pro-Phe-p-nitroanilide (Sigma; 2 mM in DMSO diluted 1/10 in assay buffer before use). The increase in absorbance at 405 nm was monitored for 10 minutes with a Biotek EL340 plate reader.

[3] = test system: human foreskin fibroblasts; assay type: cell-based
Text: (§1) These complimentary assays tested the ability of a compound to inhibit the production of new virus and the toxicity of the compound to the host cells. It was important that both assays be performed simultaneously in order to compare the results directly since, toxicity may indirectly reduce viral yield.
Viral yield was estimated by measuring the amount of a viral antigen produced 4 days post infection with a monoclonal antibody to an abundant “immediate early” viral protein. An enzyme-linked (horseradish peroxidase) secondary antibody specific to the primary (mouse) antibody was used to measure the amount of viral antigen. Test compounds were diluted to 2-times the desired final concentration in DMEM+5% FBS. One hundred microliters of this solution was placed in each well of a 96-well plate. This was performed once for the antiviral 96-well plate and again for a cytotoxicity plate. Two controls were also included for both plates; a no drug control and a no virus control. Ganciclovir was routinely tested in antiviral and cytotoxicity plates as a reference standard because it has known antiviral activity for HCMV. All cells were prepared by harvesting human foreskin fibroblasts, with trypsin and re-suspending at a concentration of 5×10^5 cells per ml in DMEM. Infected cells were prepared by infecting these with HCMV (strain AD169) at a multiplicity of infection=0.2. One hundred microliters of uninfected cells (5×10^4 cells) were added to the appropriate wells of the cytotoxicity plate. In a similar manner 100 μl of infected cells (5×10^4 cells) were added to the appropriate wells of the antiviral plate. […]
In this assay, HCMV replication was monitored by the production of E. coli beta-galactosidase by the engineered virus RC256 [Spaete and Mocarski, Proc. Nat. […] The reaction was stopped with 100 μl 1M CAPS buffer, pH=11.0, per well and the optical density was read at 410 nanometers. Ganciclovir was used as a positive control and the EC50 was determined as described above for the HCMV ELISA. […]

[4] = test system: human foreskin fibroblasts; assay type: cell-based; details: 96 h
Text: as §1
Viral yield was estimated by measuring the amount of a viral antigen produced 4 days post infection with a monoclonal antibody to an abundant “immediate early” viral protein. An enzyme-linked (horseradish peroxidase) secondary antibody specific to the primary (mouse) antibody was used to measure the amount of viral antigen. Test compounds were diluted to 2-times the desired final concentration in DMEM+5% FBS. One hundred microliters of this solution was placed in each well of a 96-well plate. This was performed once for the antiviral 96-well plate and again for a cytotoxicity plate. Two controls were also included for both plates; a no drug control and a no virus control. Ganciclovir was routinely tested in antiviral and cytotoxicity plates as a reference standard because it has known antiviral activity for HCMV. All cells were prepared by harvesting human foreskin fibroblasts, with trypsin and re-suspending at a concentration of 5×10^5 cells per ml in DMEM. Infected cells were prepared by infecting these with HCMV (strain AD169) at a multiplicity of infection=0.2. […]

Sequence of HCMV protease (Assemblin) (P16753 1-256): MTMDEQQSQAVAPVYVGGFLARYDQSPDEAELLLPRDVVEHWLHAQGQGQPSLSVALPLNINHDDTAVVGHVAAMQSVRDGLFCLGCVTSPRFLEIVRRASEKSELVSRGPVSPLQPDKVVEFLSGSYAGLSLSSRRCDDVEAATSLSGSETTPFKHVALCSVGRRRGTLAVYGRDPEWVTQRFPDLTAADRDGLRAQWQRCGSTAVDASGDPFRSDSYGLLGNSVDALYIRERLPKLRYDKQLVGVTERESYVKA

Row | Compound | melting point [°C] | IC50 [1] [µM] | also measured
1 | O=C(Nc1ccccc1C(=O)C(F)(F)F)c1cnccn1 [Example 5, N-[2-(2,2,2-Trifluoro-1-oxoethyl)phenyl]pyrazine-2-carboxamide] |  | 3.7 | Chymotrypsin % @ Conc. (μM) ([2]; @ 300 μM): 0% @ 300; Antiviral Activity TD50 ([3]; 3 days): > 100 µM
2 | O=C(CCc1ccccc1)Nc1cc(F)ccc1C(=O)C(F)(F)F [Example 2, N-[5-Fluoro-2-(2,2,2-trifluoro-1-oxoethyl)phenyl]benzenepropanamide] |  | 5.3 | 
3 | O=C(Nc1ccccc1C(=O)C(F)(F)F)c1cc2ccccc2s1 [Example 9, N-[2-(2,2,2-Trifluoro-1-oxoethyl)phenyl]-1-benzothiophene-2-carboxamide] |  | 26 | Chymotrypsin % @ Conc. (μM) ([2]; @ 100 μM): 48% @ 100; Antiviral Activity TD50 ([3]; 3 days): > 100 µM
4 | O=C(CCc1ccccc1)Nc1cc([N+](=O)[O-])ccc1C(=O)C(F)(F)F [Example 7, N-[5-Nitro-2-[2,2,2-trifluoro-1-oxoethyl)phenyl]benzenepropanamide] |  |  | Antiviral Activity TD50 [4]: > 100 µM
5 | O=C(Nc1ccccc1C(=O)C(F)(F)F)OCc1ccccc1 [Example 6, Phenylmethyl N-[2-(2,2,2-trifluoro-1-oxoethyl)phenyl]carbamate] |  | 17 | 
6 | O=C(Nc1ccccc1C(=O)C(F)(F)F)C(F)(F)F [Example 10, α,α,α-Trifluoro-N-[2-(2,2,2-trifluoro-1-oxoethyl)phenyl]acetamide] |  |  | Antiviral Activity TD50 (μM) [4]: >100/>100 μM
7 | O=C(CCc1ccccc1)Nc1ccccc1C(=O)C(F)(F)F [Example 4, N-[2-(2,2,2-Trifluoro-1-oxoethyl)phenyl]benzenepropanamide] |  | 49 | 
8 | O=C(Nc1ccccc1C(=O)C(F)(F)F)c1ccco1 [Example 1, N-[2-(2,2,2-Trifluoro-1-oxoethyl)phenyl]furan-2-carboxamide] |  | 7.7 | Chymotrypsin % @ Conc. (μM) ([2]; @ 300 μM): 0% @ 300

Second part, led by results:

Row | melting point [°C] | IC50 [1] [µM] | Compound | also measured
9 | 134 to 135 |  | O=C(COc1ccc(Cl)cc1)Nc1ccccc1C(=O)C(F)(F)F [Example 14, N-[2-(2,2,2-Trifluoro-1-oxoethyl)phenyl]4-chlorophenoxyacetamide] | 
10 | 188 to 193 |  | O=C(Nc1ccccc1C(=O)C(F)(F)F)c1cc2ccccc2[nH]1 [Example 15, N-[2-(2,2,2-Trifluoro-1-oxoethyl)phenyl]indolyl-2-carboxamide] | 
11 | 130 to 132 | 36 | O=C(Nc1ccccc1C(=O)C(F)(F)F)c1cc2ccccc2o1 [Example 16, N-[2-(2,2,2-Trifluoro-1-oxoethyl)phenyl]benzofuranyl-2-carboxamide] | 
12 | 131.5 to 132 | 8.5 | COc1ccccc1C(=O)Nc1ccccc1C(=O)C(F)(F)C(=O)NC(C)C [Example 17, N-[2-(3-(2-Propylamino)-3-oxo-2,2-difluoro-1-oxopropyl)phenyl]2-methoxyphenylcarboxamide] | 
13 |  | 8.3 | O=C(Nc1ccc(I)cc1C(=O)C(F)(F)F)c1ccco1 [Example 13, N-[4-Iodo-2-(2,2,2-trifluoro-1-oxoethyl)phenyl]furan-2-carboxamide] | Antiviral Activity TD50 [3]: > 100 µM
